The text below walks through data of PMC3253046 (Chinese Medicine, 2011).

Each structure is given as a SMILES string. Where two headings read alike, the source gives them in different places.

Data set [1] is described as follows: Stability of the selected isoflavones in transport buffer (PBS+). The format is physicochemical. The note with it: three hours of incubation. How it is done: The transport buffer (PBS^+) used in the Caco-2 monolayer model was prepared as previously described. […]. For stability tests at 37°C, samples were taken at 0, 15, 40, 75, 120 and 180 minutes. At each time interval, 300 μl of isoflavone solution was taken and then acidified with 50 μl of 0.425% phosphoric acid. All experiments were conducted in triplicates. The amount of selected isoflavones remained in PBS^+ was determined with high-performance liquid chromatography (HPLC).

A short description of data set [2]: Bidirectional transport in the Caco-2 monolayer model. The format is in vitro ADME, human. The conditions noted are these: human. The method, then:
(§1) The Caco-2 cells were cultured and seeded in the Transwell® inserts (24 mm, 0.4 μm pore size, 4.71 cm^2, polycarbonate filter) according to our previous study. Cells used for the current study were from passage 35-40. The transport experiments were carried out at 23-25 days after seeding. Upon removal of culture medium, the Transwells® were pre-equilibrated with PBS^+ at 37°C for 15 minutes. […] All Caco-2 transport studies were performed at least in triplicates. Procedure was similar to the A→B transport studies except for the donor side and the receiver side was reversed. […] Samples were taken from the receiver (apical) side at the same time points and at the end of the experiment from the donor (basolateral) side as mentioned for the A→B studies. The studies were also performed at least in triplicates. Samples obtained in the Caco-2 transport studies were acidified with 0.425% phosphoric acid at a sample to acid ratio of 150:25 (v/v). […] Waters 2695 separation modules and Waters 996 photodiode array detector were used in the HPLC analyses of the Caco-2 samples. A reversed-phase column (100 × 4.6 mm 5μ Apex ODS Symm, Jones Chromatography, USA) equipped with a guard column (7.5 × 4.6 mm 5μ Spherisorb® ODS-2 C18, Waters, USA]) was used for the analyses of all three isoflavones. In order to shorten sample-running time, three separated HPLC methods were used for each isoflavone. The apparent permeability coefficient, Papp (cm/s), was calculated as follows. Papp=dC∕dT×V/(A×Co) where dC/dT is the initial slope of the plot of cumulative isoflavone concentrations versus time; V is the volume of receiver chamber (ml); A is the apparent surface area of the monolayer; Co is the initial concentration in donor site (μmol/ml). In addition to Papp, the percentage of recovery was calculated for each transport study to determine the extent of absence of isoflavone, which may be due to cell uptake or metabolism of the selected isoflavones after passing through the Caco-2 cells. It was calculated as follows. Recovery%=Final amount (in μmole) of isoflavone in donor and receptor side∕Initial amount (in μmole) of isoflavone in donor side
Background: Passage across Caco-2 layers is used to estimate intestinal permeability.

Data set [3] has as its system Caco-2 monolayer. The description is as above. The note with it: for time at which detectable in receiver chambers: after being loaded, both directions. The format is in vitro ADME, human. The method, then:
as §1

A short description of data set [4]: Hydrolysis on incubation with rat intestinal microvilli preparations. Format: in vitro ADME. The conditions noted are these: 50 μM, 37°C, two hours, protein 0.43 mg/ml. How it is done:
Male Sprague-Dawley rats, supplied by and bred at the Laboratory Animal Service Center at The Chinese University of Hong Kong, were housed in an air-conditioned room under a 12/12-hour light/dark cycle. The experiment was conducted after being approved by the Animal Ethics Committee of The Chinese University of Hong Kong.
Samples from the in vitro incubation studies were centrifuged at 16,000 × g (Eppendorf, Germany) for five minutes; 50 μl of the supernatant of the samples were obtained and injected into the HPLC for analysis. In order to monitor daidzin, puerarin and daidzein in a single run for the samples from the hydrolysis study, we modified the above HPLC method for simultaneous detection of the three compounds. The analytes were separated with an HPLC column (BDS reversed phase column, 25 cm × 4.6 mm id; 5 μm particle size, Thermo Hypersil, UK) and eluted by the linear gradient elution at a flow rate of 1 ml/min. The gradient started with 95% of water with 0.01% aqueous acetic acid (A) and 5% of ACN containing 0.01% acetic acid (B), changed linearly to 83% A and 17% B in 30 minutes; 70% A and 30% B in 30-40 minutes; 50% A and 50% B in 40-45 minutes; and then back to the initial composition in 15 minutes followed by ten minutes after equilibrium.

Data set [5] can be described thus: Partition coefficients (octanol/aqueous). The format is physicochemical. The note with it: read-out: partition coefficient D (LogD, octanol/aqueous). The method, then:
The aqueous solution (10 ml) containing individual isoflavones was mixed with octanol (3 ml). The mixtures were equilibrated in tube rotator for 24 hours followed by sampling from the aqueous layers and determining concentrations of the isoflavones by HPLC. The test was performed in triplicates for each isoflavone. The partition coefficients (D) at both pH7.4 and pH 6.8 were obtained through the following equation:
LogD=log(isoflavoneoctanolphase∕isoflavoneaqueousphase)

Data set [6] concerns MRP. Put plainly: Basolateral-to-apical transport in Caco-2 monolayer in the presence of MK571 (MRP inhibitor). Format: in vitro ADME, human. The note with it: for lowering of B→A cumulative concentration versus without MK571: MK571 50 μM. How it is done:
Procedure was similar to the A→B transport studies except for the donor side and the receiver side was reversed. Loading solution (2.6 ml) was added into the basolateral side and 1.5 ml of the blank PBS^+ was added to the apical side. Samples were taken from the receiver (apical) side at the same time points and at the end of the experiment from the donor (basolateral) side as mentioned for the A→B studies. The studies were also performed at least in triplicates.
The study was performed only for isoflavones that had shown a favorable B→A transport in the bi-directional transport studies. […] To investigate the influence of MRP on the efflux transport of the selected isoflavones, we preloaded 1.5 ml of MK571 (50 μM) at apical side and 2.6 ml of MK571 (50 μM) at the basolateral side respectively. The B→A transport experiments of the selected isoflavones in the presence of MK571 (50 μM) in the both apical and basolateral chambers were then performed following the method described above. The studies were performed in triplicates.

Setting [7] is: Caco-2, pH 6.8, Caco-2, pH6.8, mean ± SD (n = 3), read-out: Recovery Apical to basolateral.
Setting [8] is: Caco-2, pH 6.8, Caco-2, pH6.8, mean ± SD (n = 3), read-out: Recovery Basolateral to apical.
Setting [9] is: both directional transport studies.

`O=c1c(-c2ccc(O)cc2)coc2c([C@@H]3O[C@H](CO)[C@@H](O)[C@H](O)[C@H]3O)c(O)ccc12` [Puerarin, puerarin]: the “isoflavone remained in PBS+” value in data set [1] (pH6.8, 37°C) is recorded as 105.00 ± 2.72%; in data set [1] (pH7.4, 37°C), 106.74 ± 4.20%. Further, the figures for the recovery in data set [2] (setting [7]) and in data set [2] (setting [8]) were 88.9 ± 7.03% and 92.7 ± 8.09%, respectively. The “time at which detectable in receiver chambers” value in data set [3] is given as “not being detectable until two hours”. Further, the “cumulative concentration in the receiver side” value amounted to 0.043 ± 0.006 µM in data set [3] (at 180 minutes after apical loading) and 0.12 ± 0.02 µM in data set [3] (at 180 minutes after basal loading). In addition, the “fraction permeable through the Caco-2 monolayer” value in data set [3] (setting [9]) is on record as “around 0.3%”. Moreover, in data set [4], the “hydrolysis by rat intestinal microvilli preparations” value is reported as “majority of puerarin remained unchanged”.
Consider `O=c1c(-c2ccc(O)cc2)coc2cc(O[C@@H]3O[C@H](CO)[C@@H](O)[C@H](O)[C@H]3O)ccc12` [Daidzin, daidzin], for which the “isoflavone remained in PBS+” value was 108.66 ± 2.16% in data set [1] (pH6.8, 37°C) and 108.11 ± 5.21% in data set [1] (pH7.4, 37°C). Besides, the logD at 24 h in data set [5] (pH 6.8, 24 hours equilibration) turned out to be 0.34 ± 0.03; in data set [5] (pH 7.4, pH7.4, 24 hours equilibration) it was 0.8 ± 0.03. For the same compound, the recovery in data set [2] (setting [7]) is 92.9 ± 1.77%; in data set [2] (setting [8]) it was 99.2 ± 2.55%. The Papp B→A in data set [2] (pH 6.8, Caco-2, pH6.8, mean ± SD (n = 3), read-out: Papp Basolateral to apical) came out at 5.3 nm/s. Also, the “time from which detectable in the receiver chamber” value in data set [6] (B→A, in the presence of MK571 50 μM) amounted to 90 min. The “lowering of B→A cumulative concentration versus without MK571” value is recorded as 50% in data set [6] (at 180 minutes) and “about 50%” in data set [6] (at 180 minutes, listed as daidzin). Also, the “cumulative concentration in the receiver chamber (B→A)” value in data set [6] (at 180 minutes, MK571 50 μM in both chambers) came to 0.41 ± 0.02 µM. Further, the recovery at 180 min in data set [6] (human, Caco-2, B→A transport in the absence and presence of MK571, read-out: percentages of recovery) is more than 90%. Further, in data set [4], the “hydrolysis by rat intestinal microvilli preparations” value is “completely hydrolyzed to daidzein”.
Consider `O=c1c(-c2ccc(O)cc2)coc2cc(O)ccc12` [Daidzein, daidzein], for which the “isoflavone remained in PBS+” value in data set [1] (pH6.8, 37°C) turned out to be 95.50 ± 0.84%; in data set [1] (pH7.4, 37°C), 97.73 ± 3.43%. Further, the recovery in data set [2] (Caco-2, pH 6.8, Recovery Apical to basolateral) was 83.1 ± 5.74%; in data set [2] (Caco-2, pH 6.8, Recovery Basolateral to apical) it was 84 ± 14.1%. For the same compound, the “time at which detectable in receiver chambers” value in data set [3] stood at 15 min. Moreover, in data set [3] (setting [9]), the percentage of recoveries entry is “about 83%”.
